{"source": "patent US20230338378A1", "about": "“Methods of Administering Myosin Inhibitors” (MYOKARDIA, INC., priority 2022, published 2023)", "key": {"CYP2B6": {"biological_target": "CYP2B6 (Homo sapiens, UniProt P20813)", "sequence (P20813 whole entry)": "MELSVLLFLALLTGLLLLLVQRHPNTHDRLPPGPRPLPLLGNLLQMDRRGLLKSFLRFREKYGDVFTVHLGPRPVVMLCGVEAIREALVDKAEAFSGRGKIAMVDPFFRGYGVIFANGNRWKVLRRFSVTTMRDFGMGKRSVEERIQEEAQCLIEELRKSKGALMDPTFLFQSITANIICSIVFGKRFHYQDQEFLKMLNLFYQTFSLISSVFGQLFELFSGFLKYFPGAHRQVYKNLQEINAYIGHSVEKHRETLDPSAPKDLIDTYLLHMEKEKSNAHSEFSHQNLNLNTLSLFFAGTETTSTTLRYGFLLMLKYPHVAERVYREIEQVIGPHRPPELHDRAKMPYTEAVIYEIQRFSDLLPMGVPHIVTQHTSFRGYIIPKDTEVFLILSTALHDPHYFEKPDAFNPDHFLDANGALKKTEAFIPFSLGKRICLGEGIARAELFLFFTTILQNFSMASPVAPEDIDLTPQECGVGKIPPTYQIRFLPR", "experiment": "In vitro CYP inhibition", "assay_type": "in vitro ADME", "settings": "In Vitro Studies"}, "CYP3A4": {"biological_target": "CYP3A4 (Homo sapiens, UniProt P08684)", "sequence (P08684 whole entry)": "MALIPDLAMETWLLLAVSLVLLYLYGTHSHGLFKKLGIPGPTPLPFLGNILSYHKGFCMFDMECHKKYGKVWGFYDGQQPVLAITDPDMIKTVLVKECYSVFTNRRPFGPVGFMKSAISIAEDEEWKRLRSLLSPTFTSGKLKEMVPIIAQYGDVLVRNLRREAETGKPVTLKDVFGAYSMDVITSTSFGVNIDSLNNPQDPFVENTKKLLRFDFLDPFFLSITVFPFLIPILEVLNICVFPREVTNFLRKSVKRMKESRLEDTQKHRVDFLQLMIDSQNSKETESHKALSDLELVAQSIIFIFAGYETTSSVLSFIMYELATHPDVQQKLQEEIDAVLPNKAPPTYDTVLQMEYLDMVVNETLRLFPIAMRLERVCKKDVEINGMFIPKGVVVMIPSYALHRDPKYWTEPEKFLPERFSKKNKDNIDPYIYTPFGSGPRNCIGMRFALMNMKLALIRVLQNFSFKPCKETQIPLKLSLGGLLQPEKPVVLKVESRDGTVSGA", "experiment": "In vitro CYP inhibition", "assay_type": "in vitro ADME", "settings": "In Vitro Studies; clinically relevant concentrations"}, "MATE1": {"biological_target": "MATE1 (Homo sapiens, UniProt Q96FL8)", "sequence (Q96FL8 whole entry)": "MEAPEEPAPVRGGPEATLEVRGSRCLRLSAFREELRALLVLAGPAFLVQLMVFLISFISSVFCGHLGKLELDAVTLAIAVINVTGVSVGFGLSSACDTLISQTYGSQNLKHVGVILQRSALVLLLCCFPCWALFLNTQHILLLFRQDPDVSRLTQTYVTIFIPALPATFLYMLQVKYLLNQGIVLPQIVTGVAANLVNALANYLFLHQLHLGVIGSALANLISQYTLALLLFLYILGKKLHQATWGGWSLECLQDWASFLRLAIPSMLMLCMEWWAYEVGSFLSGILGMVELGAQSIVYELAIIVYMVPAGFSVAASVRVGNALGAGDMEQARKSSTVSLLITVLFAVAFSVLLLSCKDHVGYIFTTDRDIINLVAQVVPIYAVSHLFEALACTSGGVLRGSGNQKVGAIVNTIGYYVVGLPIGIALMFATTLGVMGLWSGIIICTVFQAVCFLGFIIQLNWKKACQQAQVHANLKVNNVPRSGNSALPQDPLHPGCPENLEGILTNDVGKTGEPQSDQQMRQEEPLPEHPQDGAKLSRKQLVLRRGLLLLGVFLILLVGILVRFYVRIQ", "experiment": "In vitro transporter inhibition", "assay_type": "in vitro ADME", "settings": "In Vitro Studies"}, "[1]": {"test_system": "organic cation transporters (OCTs)", "experiment": "In vitro transporter inhibition", "assay_type": "in vitro ADME", "settings": "In Vitro Studies"}, "male or female rats": {"test_system": "male or female rats", "experiment": "Reproductive toxicity studies (mating and fertility)", "assay_type": "in vivo, rat"}, "[2]": {"experiment": "Human experience of overdose", "assay_type": "in vivo", "method": "(§1) Human experience of overdose with MAVACAMTEN is limited. MAVACAMTEN has been given as a single dose of up to 144 mg in patients with HCM. […] In healthy subjects, doses of up to 25 mg have been administered for up to 25 days, with 3 of 8 participants treated at the 25 mg dose level experiencing 20% or greater reductions in LVEF. An infant death was reported after accidental ingestion of three 15 mg capsules."}, "healthy subjects": {"test_system": "healthy subjects", "experiment": "Doses of up to 25 mg for up to 25 days in healthy subjects", "assay_type": "in vivo", "settings": "25 mg dose level for up to 25 days", "method": "as §1"}, "healthy volunteers": {"test_system": "healthy volunteers", "experiment": "Cardiac electrophysiology (QTc) in healthy volunteers", "assay_type": "in vivo, human", "description": "The mechanism of the QT prolongation effect is not known."}}, "data": [{"molecule": "CC(C)n1c(=O)cc(N[C@@H](C)c2ccccc2)[nH]c1=O", "note": "[mavacamten, (S)-3-Isopropyl-6-((1-phenylethyl)amino)pyrimidine-2,4(1H,3H)-dione]", "values": [{"measurement": "inhibition of CYP2B6", "setting": "CYP2B6", "result": "does not inhibit"}, {"measurement": "inhibition of CYP3A4", "setting": "CYP3A4", "result": "not an inhibitor"}, {"measurement": "inhibition of MATE1", "setting": "MATE1", "result": "does not inhibit"}, {"measurement": "inhibition of OCTs", "setting": "[1]", "result": "does not inhibit"}, {"measurement": "effects on the viability and fertility of offspring", "setting": "male or female rats; dams dosed up to 1.5 mg/kg/day", "result": "no evidence of effects"}, {"measurement": "effects on mating and fertility", "setting": "male or female rats; male or female rats, doses up to 1.2 mg/kg/day", "result": "no evidence of effects"}, {"measurement": "Plasma exposure (AUC) at the highest dose tested", "setting": "male or female rats; rats", "result": "the same as in humans at the MRHD"}, {"measurement": "events after overdose", "setting": "[2]; one subject, single dose of 144 mg, subject recovered", "result": "serious adverse events including vasovagal reaction, hypotension, and asystole"}, {"measurement": "outcome after accidental ingestion", "setting": "[2]; three 15 mg capsules", "result": "infant death"}, {"measurement": "participants experiencing 20% or greater reductions in LVEF", "setting": "healthy subjects", "result": "3 of 8"}, {"measurement": "QTc interval", "setting": "healthy volunteers; healthy volunteers, multiple doses up to 25 mg once daily", "result": "concentration-dependent increase in the QTc interval"}, {"measurement": "QTc interval", "setting": "healthy volunteers; similar exposures during single-dose studies", "result": "No acute QTc changes"}]}]}
